{
  "source": "patent US20240423995A1",
  "about": "“C-KIT INHIBITORS AND USES FOR TREATING AND PREVENTING INFLAMMATORY CONDITIONS” (GEORGETOWN UNIVERSITY, priority 2023, published 2024)",
  "key": {"[1]": {"target": "T1, KIT (D816V) (Homo sapiens, UniProt P10721, D816V)", "T1 construct": "purchased Eurofins DiscoverX Corporation", "T1 sequence (P10721 26-976 D816V)": "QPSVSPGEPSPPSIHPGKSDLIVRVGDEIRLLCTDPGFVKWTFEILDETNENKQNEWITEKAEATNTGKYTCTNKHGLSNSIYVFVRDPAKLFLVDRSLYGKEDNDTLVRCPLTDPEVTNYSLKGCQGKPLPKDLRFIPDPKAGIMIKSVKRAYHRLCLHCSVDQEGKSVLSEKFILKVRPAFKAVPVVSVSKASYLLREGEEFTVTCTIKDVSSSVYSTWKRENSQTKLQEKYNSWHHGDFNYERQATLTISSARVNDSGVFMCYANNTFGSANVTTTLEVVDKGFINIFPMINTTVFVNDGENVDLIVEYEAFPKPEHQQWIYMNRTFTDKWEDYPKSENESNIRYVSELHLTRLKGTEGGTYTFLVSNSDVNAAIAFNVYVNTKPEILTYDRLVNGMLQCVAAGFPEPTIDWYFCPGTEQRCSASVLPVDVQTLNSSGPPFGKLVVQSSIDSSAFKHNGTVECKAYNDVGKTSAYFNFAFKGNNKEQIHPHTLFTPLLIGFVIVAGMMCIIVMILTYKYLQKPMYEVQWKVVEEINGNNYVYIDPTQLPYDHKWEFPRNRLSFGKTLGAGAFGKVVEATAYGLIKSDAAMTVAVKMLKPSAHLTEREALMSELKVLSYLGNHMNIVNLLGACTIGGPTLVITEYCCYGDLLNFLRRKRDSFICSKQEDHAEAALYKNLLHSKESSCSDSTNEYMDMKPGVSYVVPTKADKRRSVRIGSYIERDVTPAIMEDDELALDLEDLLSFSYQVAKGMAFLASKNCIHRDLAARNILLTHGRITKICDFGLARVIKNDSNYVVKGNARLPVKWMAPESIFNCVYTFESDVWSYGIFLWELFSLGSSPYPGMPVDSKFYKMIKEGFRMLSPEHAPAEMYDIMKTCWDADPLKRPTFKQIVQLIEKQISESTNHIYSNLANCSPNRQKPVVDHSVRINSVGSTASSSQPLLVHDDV", "assay": "KINOMEscan competition binding screen, KIT (D816V)", "conditions": "for remaining binding at 10 µM: read-out: % Ctrl @ 10 μM", "experimental": "(§1) The KINOMEscan™ screening platform (Eurofins DiscoverX Corporation, San Diego, USA) was performed using an active site-directed competition binding assay to quantitatively measure interactions between BK40143, BK40197, BK40195, and BK40196 and more than 450 human kinases and disease relevant mutant variants. […] Screening “hits” were identified by measuring the amount of kinase captured in test (BK40143, BK40197, BK40195, and BK40196) versus control samples by using a quantitative and ultra-sensitive qPCR method that detects the associated DNA label. BK40143, BK40197, BK40195, and BK40196 were screened at 10 μM concentration, and results for primary screen binding interactions were reported as ‘% Ctrl’ (POC), where lower numbers indicate stronger hits and calculated as follows:\n(§2) [formula] • test compound=BK40143 or BK40197 or BK40195 or BK40196 • negative control=DMSO (100% Ctrl) • positive control=control compound (0% Ctrl)\n(§3) Based on screening data of profiled compounds, a proportional relationship between primary screening results and corresponding compound/target affinities can be described as binding constants (Kd values) for the indicated ranges of percent of control (PoC) values, with tighter binding (higher affinity) interactions associated with lower PoC values, and weaker binding (lower affinity) associated with higher PoC values. Briefly, kinase-tagged T7 phage strains were grown in parallel in 24-well blocks in an E. coli host derived from the BL21 strain. E. coli were grown to log-phase and infected with T7 phage from a frozen stock (multiplicity of infection=0.4) and incubated with shaking at 32° C. until lysis (90-150 minutes). The lysates were centrifuged (6,000×g) and filtered ([…]) to remove cell debris. The remaining kinases were produced in HEK-293 cells and subsequently tagged with DNA for qPCR detection. Streptavidin-coated magnetic beads were treated with biotinylated small molecule ligands for 30 minutes at room temperature to generate affinity resins for kinase assays. The liganded beads were blocked with excess biotin and washed with blocking buffer (SeaBlock (Pierce), 1% BSA, 0.05% Tween 20, 1 mM DTT) to remove unbound ligand and to reduce non-specific phage binding. Binding reactions were assembled by combining kinases, liganded affinity beads, and test compounds in 1× binding buffer (20% SeaBlock, 0.17×PBS, 0.05% Tween 20, 6 mM DTT). Test compounds were prepared as 100× stocks in 100% DMSO and directly diluted into the assay. All reactions were performed in polypropylene 384-well plates in a final volume of 0.02 ml. The assay plates were incubated at room temperature with shaking for 1 hour and the affinity beads were washed with wash buffer (1×PBS, 0.05% Tween 20). The beads were then re-suspended in elution buffer (1×PBS, 0.05% Tween 20, 0.5 μM non-biotinylated affinity ligand) and incubated at room temperature with shaking for 30 minutes. The kinase concentration in the eluates was measured by qPCR."}, "[2]": {"target": "T2, KIT (L576P) (Homo sapiens, UniProt P10721, L576P)", "T2 construct": "purchased Eurofins DiscoverX Corporation", "T2 sequence (P10721 26-976 L576P)": "as the sequence (P10721 26-976 D816V) above, with L551P, V791D counted along it", "assay": "KINOMEscan competition binding screen, KIT (L576P)", "conditions": "for remaining binding at 10 µM: read-out: % Ctrl @ 10 μM", "experimental": "as §1, §2, §3"}, "[3]": {"test_system": "mast cell degranulation", "assay": "Compound 48/80-induced mast cell degranulation in wild type C57BL/6 mice, toluidine blue blood smear", "type": "in vivo", "conditions": "for mast cell degranulation 0.5-1.5 hours post-injection of C48/40: approximately two hours before I.P. injection of compound 48/80, toluidine blue blood smear; for effect on mast cell degranulation induced by C48/40: single I.P. injection two hours prior to compound 48/80 treatment, blood smear", "experimental": "Wild type C57BL/6J mice were treated with C48/40 to induce mast cell activation. Compound 48/80 is a polymer produced by the condensation of N-methyl-p-methoxyphenethylamine with formaldehyde. It promotes histamine release, and in biochemical research, compound 48/80 (for example, Catalog No. C2313, Sigma-Aldrich, St. Louis, MO) is used to promote mast cell degranulation. Male and female, 4-8 months old wild type C57BL/6 mice were treated only once with intraperitoneal (I.P.) injection of DMSO (control) or DMSO for 2 hours followed by C48/40 for 0.5-1.5 hours. Mice were injected with DMSO approximately 2 hours prior to injection (IP) with 50 μg C48/40 to show degranulation of mast cells 0.5-1.5 hours post-injection of C48/40. Animals were also injected with 20 mg/kg BK40197, BK40195 or BK40196; or 10 mg/kg BK40143 approximately two hours before I.P. injection of C48/40 to show the effects of the drugs on mast cell degranulation approximately 0.5-1.5 hours post-injection of C48/40. Drugs and C48/40 were injected on the same site. n=6 per treatment. Blood was collected and a smear was prepared and stained with Toluidine blue to show mast cell morphology."}},
  "data": [
    {"compound": "Cc1cccc(-c2cc3nccc(Nc4ccccc4)c3s2)c1", "note": "[BK40143]", "values": [
      {"measurement": "inhibition at 10 µM", "setting": "[1]", "result": 65, "unit": "%"},
      {"measurement": "remaining binding at 10 µM", "setting": "[1]", "result": 35, "unit": "%"},
      {"measurement": "inhibition at 10 µM", "setting": "[2]", "result": 96.5, "unit": "%"},
      {"measurement": "remaining binding at 10 µM", "setting": "[2]", "result": 3.5, "unit": "%"},
      {"measurement": "mast cell degranulation 0.5-1.5 hours post-injection of C48/40", "setting": "[3]; 10 mg/kg", "result": "absence of mast cell degranulation"},
      {"measurement": "effect on mast cell degranulation induced by C48/40", "setting": "[3]", "result": "significantly prevented mast cell degranulation"}
    ]},
    {"compound": "COc1cccc(Nc2ccnc3cc(-c4cccc(C)c4)sc23)c1", "note": "[BK40195]", "values": [
      {"measurement": "inhibition at 10 µM", "setting": "[1]", "result": 98.3, "unit": "%"},
      {"measurement": "remaining binding at 10 µM", "setting": "[1]", "result": 1.7, "unit": "%"},
      {"measurement": "inhibition at 10 µM", "setting": "[2]", "result": 91.9, "unit": "%"},
      {"measurement": "remaining binding at 10 µM", "setting": "[2]", "result": 8.1, "unit": "%"},
      {"measurement": "mast cell degranulation 0.5-1.5 hours post-injection of C48/40", "setting": "[3]; 20 mg/kg", "result": "absence of mast cell degranulation"},
      {"measurement": "effect on mast cell degranulation induced by C48/40", "setting": "[3]", "result": "significantly prevented mast cell degranulation"}
    ]},
    {"compound": "Cc1cccc(-c2cc3nccc(Nc4cccc(O)c4)c3s2)c1", "note": "[BK40196]", "values": [
      {"measurement": "inhibition at 10 µM", "setting": "[1]", "result": 99.8, "unit": "%"},
      {"measurement": "remaining binding at 10 µM", "setting": "[1]", "result": 0.2, "unit": "%"},
      {"measurement": "inhibition at 10 µM", "setting": "[2]", "result": 99.2, "unit": "%"},
      {"measurement": "remaining binding at 10 µM", "setting": "[2]", "result": 0.8, "unit": "%"},
      {"measurement": "mast cell degranulation 0.5-1.5 hours post-injection of C48/40", "setting": "[3]; 10 mg/kg", "result": "absence of mast cell degranulation"},
      {"measurement": "effect on mast cell degranulation induced by C48/40", "setting": "[3]", "result": "significantly prevented mast cell degranulation"}
    ]},
    {"compound": "Cc1cccc(-c2cc3nccc(N4CCOCC4)c3s2)c1", "note": "[BK40197]", "values": [
      {"measurement": "inhibition at 10 µM", "setting": "[1]", "result": 33, "unit": "%"},
      {"measurement": "remaining binding at 10 µM", "setting": "[1]", "result": 67, "unit": "%"},
      {"measurement": "inhibition at 10 µM", "setting": "[2]", "result": 98.2, "unit": "%"},
      {"measurement": "remaining binding at 10 µM", "setting": "[2]", "result": 1.8, "unit": "%"},
      {"measurement": "mast cell degranulation 0.5-1.5 hours post-injection of C48/40", "setting": "[3]; 20 mg/kg", "result": "absence of mast cell degranulation"},
      {"measurement": "effect on mast cell degranulation induced by C48/40", "setting": "[3]", "result": "significantly prevented mast cell degranulation"}
    ]}
  ]
}
